# From publication PMC11292009, “Mapping protein binding sites by photoreactive fragment pharmacophores” (Communications Chemistry, 2024)
# How the values were obtained:
# Assay type in all cases: binding
# [1] = test system: T1, BRD4-BD1; assay: Intact MS photoaffinity labeling screen, BRD4-BD1 (302 nm, LCMS-TOF); details: for MS labeling percentage, BRD4: BRD4-BD1, 302 nm 10 min; for BRD4-BD1 (experimental hit status): hit flag 1/0, sheet PhP, photoaffinity labeling screen
# T1 construct: screened the PhP library against the first bromodomain of BRD4 (BRD4-BD1); purchased GSK/GenScript
# Experimental: (§1) Using a plate-based format with one fragment per well, each fragment was incubated with the target proteins for 15 min to allow for the formation of non-covalent interactions. […] Finally, the results were directly analyzed from the plate using intact protein mass spectrometry by observing the mass additions that correspond to successful labeling (Fig. 2c, for labeling % values see Supplementary data). The library was first characterized against three benchmark proteins like carbonic anhydrase (CA), lysozyme (Lyo), and myoglobin (Myo).
# (§2) The PhP library was screened against BRD4-BD1 and KRas^G12D as follows. […] The probe plate was placed on ice. 15 μL of protein stock solution (1 μM BRD4-BD1 (GSK/GenScript) or KRas^G12D (GSK/GenScript) in PBS buffer) was dispensed into wells containing fragments. The plate was left on ice for 15 min for incubation, then irradiated at 302 nm for 10 min, and centrifuged (1000 rpm, 1 min) to remove any bubbles. […] The deconvoluted spectra were analyzed using R Studio software.
# [2] = test system: myoglobin (Myo); assay: Intact protein MS photoaffinity labeling screen, myoglobin; details: intact protein MS after 10 min irradiation
# Experimental: as §1
# [3] = test system: lysozyme (Lyo); assay: Intact protein MS photoaffinity labeling screen, lysozyme; details: intact protein MS after 10 min irradiation
# Experimental: as §1
# [4] = test system: T2, KRas^G12D; assay: Intact MS photoaffinity labeling screen, KRas G12D (302 nm, LCMS-TOF); details: for MS labeling percentage, KRas: KRas G12D, 302 nm 10 min; for KRAS-G12D (experimental hit status): hit flag 1/0, sheet PhP, photoaffinity labeling screen
# T2 construct: purchased GSK/GenScript
# Experimental: as §1, §2
# [5] = test system: carbonic anhydrase II (CA); assay: Intact protein MS photoaffinity labeling screen, carbonic anhydrase; details: intact protein MS after 10 min irradiation
# Experimental: as §1
# [6] = test system: T3, STAT5B-NTD; assay: Intact MS labeling screen, STAT5B-NTD conjugated with photocatalyst Ir-G2-PEG3-COOH (450 nm); details: 450 nm 10 min;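 also: 0.14 µL of 100 mM DMSO fragment stock added to the conjugate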
# T3 construct: His-SUMO (N, cleaved yes); made in house; host or cells: E. coli BL21 RILP
# Experimental: For the photocatalysis experiments, 1.4 µL photocatalyst (in 1.4 mM DMSO solution, 10 eq) was pre-incubated with 1.5 µL coupling reagent (0.75 µL, 5.6 mM EDC (20 eq)+0.75 µL 4.2 mM NHS and 1.5 µL 2.1 mM (15 eq) BOP for 30 min in dark. 30 µL STAT5B-NTD (in 7 µM concentration) was added and incubated further at room temperature overnight or at 37 °C for 1 h in dark. After addition of 0.14 µL PhP (in 100 mM DMSO) the solution was further incubated in dark for 1 h. Irradiation was carried out using 450 nm LED lamp (7.6Vx0A) for 10 min at 4 °C.
# (§3) During the analysis, the column temperature was maintained at a constant 60 °C, and a sample volume of 3 µL was injected for each analysis. Data acquisition was conducted in positive ion mode within the m/z 100–2000 (mass-to-charge ratio) range. For the full protocol and spectra of the hits, see Supplementary Note 2.
# [7] = test system: T3, STAT5B-NTD; assay: Intact MS photoaffinity labeling screen, STAT5B-NTD (365 nm, UHPLC-MS); details: for MS labeling percentage, STAT5B: STAT5B-NTD, 365 nm 10 min, no photocatalyst; for STAT5B-NTD (experimental hit status): hit flag 1/0, sheet PhP, photoaffinity labeling screen;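 as to MS labeling percentage, STAT5B: 0.17 µL of 100 mM DMSO fragment stock added to the protein sample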
# Experimental: STAT5B protein in 7 µM concentration in pH 7.4 PBS buffer was pre-incubated with 0.17 µL PhP (in 100 mM DMSO solution) for 1 h at room temperature in dark. Irradiation was carried out at 4 °C for 10 min using 365 nm UV lamp.
# as §3
SMILES,"MS labeling percentage, CA [5] [%]","MS labeling percentage, BRD4 [1] [%]",BRD4-BD1 (experimental hit status) [1],"MS labeling percentage, Myo [2] [%]","MS labeling percentage, Lyo [3] [%]","MS labeling percentage, KRas [4] [%]",KRAS-G12D (experimental hit status) [4],"MS labeling percentage, STAT5B+photocat [6] [%]","MS labeling percentage, STAT5B [7] [%]",STAT5B-NTD (experimental hit status) [7]
"COc1ccc(CNC(=O)CCC2(C)N=N2)cn1 [PhP039, COc1ccc(cn1)CNC(=O)CCC2(C)N=N2]",0.5,0.5,0,0.3,0,0.2,0,1.3,1,0
"Cc1nc(NC(=O)CCC2(C)N=N2)c2cnn(-c3ccc(F)cc3)c2n1 [PhP041, c1cc(F)ccc1-n(nc2)c(c23)nc(C)nc3NC(=O)CCC4(C)N=N4]",0.3,0.2,0,0,0,0.3,0,10.6,0,0
"CC1(CCC(=O)Nc2cccc(-n3cnnn3)c2)N=N1 [PhP042, N1=NC1(C)CCC(=O)Nc2cccc(c2)-n3cnnn3]",0.9,1,0,0.2,0,0.5,0,17.8,2,0
"Cn1ccnc1-c1cc(NC(=O)CCC2(C)N=N2)n[nH]1 [PhP043, Cn1ccnc1-c2cc(n[nH]2)NC(=O)CCC3(C)N=N3]",0.5,0.8,0,0.1,0,0.3,0,0,1,0

# Now from value to molecule, other results behind:
"MS labeling percentage, CA [5] [%]",SMILES,"MS labeling percentage, BRD4 [1] [%]",BRD4-BD1 (experimental hit status) [1],"MS labeling percentage, Myo [2] [%]","MS labeling percentage, Lyo [3] [%]","MS labeling percentage, KRas [4] [%]",KRAS-G12D (experimental hit status) [4],"MS labeling percentage, STAT5B+photocat [6] [%]","MS labeling percentage, STAT5B [7] [%]",STAT5B-NTD (experimental hit status) [7]
0.2,"COc1ccccc1OCCNC(=O)CCC1(C)N=N1 [PhP044, COc1ccccc1OCCNC(=O)CCC2(C)N=N2]",0.2,0,0,0,0,0,1.4,1,0
0.5,"CC1(CCC(=O)NCC(C)(C)NS(C)(=O)=O)N=N1 [PhP045, CS(=O)(=O)NC(C)(C)CNC(=O)CCC1(C)N=N1]",0.4,0,0.2,0,0.2,0,2.3,0,0
0.2,"CC(C)CN1CCOC(CNC(=O)CCC2(C)N=N2)C1 (centres unmarked) [PhP046, CC(C)CN1CCOC(C1)CNC(=O)CCC2(C)N=N2]",0.1,0,0.3,0,0.2,0,0.7,1,0
0.6,"CC1(CCC(=O)NC2CCc3nccn3C2)N=N1 (centres unmarked) [PhP047, N1=NC1(C)CCC(=O)NC(CC2)Cn(c23)ccn3]",0.5,0,0,0,0.1,0,2.1,0,0
